Experimental data taken from ChEMBL document CHEMBL1201862, “PubChem BioAssay data set” (2004).
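Tested at 5 concentrations; 48 h exposure; 96-well plates; endpoints linearly interpolated, else capped at highest concentration. At the GI50, growth is halved.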 The source made the active and inactive calls. Rule as the data show it: active = GI50 up to about 1.1 µM and inactive = higher. Peptide text beside a SMILES is read from it. * marks the point of attachment. Boc = CC(C)(C)OC(=O)*

Key:
Assay in all cases: NCI anticancer screen, dose series, 48 h
HCT-116 = test system: HCT-116
RXF 393 = test system: RXF 393
SNB-19 = test system: SNB-19
LOX IMVI = test system: LOX IMVI
COLO 205 = test system: COLO 205
SK-MEL-2 = test system: SK-MEL-2
OVCAR-4 = test system: OVCAR-4
HOP-92 = test system: HOP-92
IGROV-1 = test system: IGROV-1
PC-3 = test system: PC-3
CAKI-1 = test system: CAKI-1
MDA-MB-231 = test system: MDA-MB-231
NCI-H23 = test system: NCI-H23
OVCAR-5 = test system: OVCAR-5
SR = test system: SR
M14 = test system: M14
OVCAR-3 = test system: OVCAR-3
MDA-MB-435 = test system: MDA-MB-435
TK-10 = test system: TK-10
UACC-62 = test system: UACC-62

Row | SMILES | GI50 (HCT-116) | GI50 (RXF 393) | GI50 (SNB-19) | GI50 (LOX IMVI) | GI50 (COLO 205) | GI50 (SK-MEL-2) | GI50 (OVCAR-4) | GI50 (HOP-92) | GI50 (IGROV-1) | GI50 (PC-3) | GI50 (CAKI-1) | GI50 (MDA-MB-231) | GI50 (NCI-H23) | GI50 (OVCAR-5) | GI50 (SR) | GI50 (M14) | GI50 (OVCAR-3) | GI50 (MDA-MB-435) | GI50 (TK-10) | GI50 (UACC-62)
1 | COc1ccc(C(=O)/C=C/c2ccc(OCC(=O)N3CCN(c4ccccc4)CC3)cc2)cc1 | 64.6 µM (inactive) | 26.1 µM (inactive) | 27.9 µM (inactive) | > 73.6 µM (inactive) | > 64.6 µM (inactive) | 45.4 µM (inactive) | 46.9 µM (inactive) | 14.2 µM (inactive) | 34 µM (inactive) | 45.5 µM (inactive) | 77.8 µM (inactive) | > 27.3 µM (inactive) | 38.6 µM (inactive) | > 100 µM (inactive) | 18.6 µM (inactive) | > 100 µM (inactive) | 74.3 µM (inactive) | > 100 µM (inactive) | 44.7 µM (inactive) | 75.2 µM (inactive)
2 | NC(=O)C(=CNC(=S)Nc1ccc(Cl)c(Cl)c1)C(N)=O | > 78.2 µM (inactive) | > 49.9 µM (inactive) | > 94.8 µM (inactive) | > 92.3 µM (inactive) | 42.8 µM (inactive) | > 81.3 µM (inactive) | 46 µM (inactive) | 33.1 µM (inactive) | 92.7 µM (inactive) | > 66.4 µM (inactive) | 59.4 µM (inactive) | > 100 µM (inactive) | > 92.3 µM (inactive) | > 100 µM (inactive) | > 71.3 µM (inactive) | > 100 µM (inactive) | > 100 µM (inactive) | 44.8 µM (inactive) | > 77.8 µM (inactive) | 49.8 µM (inactive)
3 | COc1ccc(/C=C2\C[C@H]3[C@@H]4CCC5=C/C(=N/O)CC[C@]5(C)[C@H]4CC[C@]3(C)\C2=N\O)cc1 | 5.21 µM (inactive) | 7.1 µM (inactive) | 20 µM (inactive) | 17.9 µM (inactive) | 14.5 µM (inactive) | 22.2 µM (inactive) | 25.7 µM (inactive) | 17.3 µM (inactive) | 37.3 µM (inactive) | 8.17 µM (inactive) | 38.3 µM (inactive) | 31.6 µM (inactive) | 19.5 µM (inactive) | 36.3 µM (inactive) | 3.99 µM (inactive) | 12.4 µM (inactive) | 10.2 µM (inactive) | 26.5 µM (inactive) | 37.1 µM (inactive) | 14.5 µM (inactive)
4 | O=C(NCCCl)Nc1ccccc1 | > 100 µM (inactive) | > 100 µM (inactive) | > 100 µM (inactive) | > 100 µM (inactive) | > 100 µM (inactive) | > 100 µM (inactive) | > 100 µM (inactive) | > 100 µM (inactive) | > 100 µM (inactive) | > 100 µM (inactive) | > 100 µM (inactive) | > 100 µM (inactive) | > 100 µM (inactive) | > 100 µM (inactive) | > 100 µM (inactive) |  | > 100 µM (inactive) | > 100 µM (inactive) |  | > 100 µM (inactive)
5 | O=C1Cc2cn[nH]c2-c2ccccc2N1 | 26.5 µM (inactive) | 28.2 µM (inactive) | > 68.2 µM (inactive) | 16.3 µM (inactive) | 29 µM (inactive) | 26.9 µM (inactive) | 30.3 µM (inactive) | 8.45 µM (inactive) | 39.2 µM (inactive) | 41.2 µM (inactive) |  | > 45.5 µM (inactive) | 29.9 µM (inactive) | 30.3 µM (inactive) | 21.7 µM (inactive) | 22.5 µM (inactive) | 16.1 µM (inactive) | 22.3 µM (inactive) | 30.2 µM (inactive) | 22.9 µM (inactive)
6 | Cc1cccc2c1C(=O)[C@](C)([C@]1(C)Nc3cccc(C)c3C1=O)N2 | 56.6 µM (inactive) | 54.1 µM (inactive) | 27.3 µM (inactive) | 29.3 µM (inactive) | 19.7 µM (inactive) | 24 µM (inactive) | 47.6 µM (inactive) | 27.3 µM (inactive) | 33.5 µM (inactive) | 14.4 µM (inactive) | 27.4 µM (inactive) | 37.1 µM (inactive) | 25.6 µM (inactive) | 24.3 µM (inactive) | 17.7 µM (inactive) | 33.9 µM (inactive) | 29.7 µM (inactive) | 15.7 µM (inactive) |  | 28.1 µM (inactive)
7 | CCN(CCCl)c1cc(CN(C)C)cc(NC(=O)c2ccc(C(=O)Nc3cccc(N(CCCl)NN)c3)cc2)c1 | 0.0277 µM (active) | 0.0285 µM (active) | < 0.01 µM (active) | < 0.01 µM (active) | 0.0635 µM (active) | 0.0521 µM (active) | 0.0136 µM (active) | 0.0789 µM (active) | 0.0225 µM (active) | 0.0142 µM (active) | 0.0168 µM (active) | 0.185 µM (active) | 0.0242 µM (active) | 0.182 µM (active) | < 0.01 µM (active) | 0.0224 µM (active) |  | 0.016 µM (active) | 0.296 µM (active) | < 0.01 µM (active)
8 | N#C[BH2-][n+]1cn(C2CC(O)C(COP(=O)(O)OC3CC(n4c[n+]([BH2-]C#N)c5c(=O)[nH]c(N)nc54)OC3CO)O2)c2nc(N)[nH]c(=O)c21 (stereo not given) | > 100 µM (inactive) | > 100 µM (inactive) | > 100 µM (inactive) |  | > 100 µM (inactive) | > 100 µM (inactive) | > 100 µM (inactive) | > 100 µM (inactive) | > 100 µM (inactive) | > 100 µM (inactive) | > 100 µM (inactive) | > 100 µM (inactive) | > 100 µM (inactive) | > 100 µM (inactive) | > 100 µM (inactive) | > 100 µM (inactive) | > 100 µM (inactive) | > 100 µM (inactive) |  | > 100 µM (inactive)
9 | O=C(O)C(O)c1ccc(F)cc1 (stereo not given) | > 100 µM (inactive) | > 100 µM (inactive) | > 100 µM (inactive) | > 100 µM (inactive) |  | > 100 µM (inactive) | > 100 µM (inactive) | > 100 µM (inactive) | > 100 µM (inactive) | > 100 µM (inactive) | > 100 µM (inactive) | > 100 µM (inactive) | > 100 µM (inactive) | > 100 µM (inactive) | > 100 µM (inactive) | > 100 µM (inactive) | > 100 µM (inactive) | > 100 µM (inactive) | > 100 µM (inactive) | > 100 µM (inactive)
10 | O=C1CSC(c2c[nH]c3ccccc23)N1c1ccc(Cl)cc1Cl (stereo not given) | > 100 µM (inactive) | > 100 µM (inactive) | > 100 µM (inactive) | > 100 µM (inactive) | > 100 µM (inactive) |  | > 100 µM (inactive) | > 100 µM (inactive) | > 100 µM (inactive) | > 100 µM (inactive) |  | > 100 µM (inactive) | > 100 µM (inactive) | > 100 µM (inactive) | > 100 µM (inactive) | > 100 µM (inactive) | > 100 µM (inactive) | > 10 µM (inactive) | > 100 µM (inactive) | > 100 µM (inactive)
11 | CC(NC(=O)OC(C)(C)C)C(=O)NC(Cc1ccccc1)C(=O)NCC(=O)O (stereo not drawn) (Boc-Ala-Phe-Gly-OH; configuration not given here) | > 100 µM (inactive) | > 100 µM (inactive) | > 100 µM (inactive) | > 100 µM (inactive) | > 100 µM (inactive) | > 100 µM (inactive) |  | > 100 µM (inactive) | > 100 µM (inactive) | > 100 µM (inactive) | > 100 µM (inactive) | > 100 µM (inactive) | > 100 µM (inactive) | > 100 µM (inactive) | > 100 µM (inactive) | > 100 µM (inactive) | > 100 µM (inactive) | > 100 µM (inactive) | > 100 µM (inactive) | > 100 µM (inactive)
12 | CC(C)=CCC/C(C)=C/CC/C(C)=C/[C@@H]1[C@@H](CO)[C@]1(C)CC/C=C(\C)CCC=C(C)C | 31.2 µM (inactive) | 23.7 µM (inactive) | > 100 µM (inactive) | 11.5 µM (inactive) | 63.1 µM (inactive) | 43.8 µM (inactive) | > 100 µM (inactive) | 16.6 µM (inactive) | 12.5 µM (inactive) | 23.9 µM (inactive) | 46.3 µM (inactive) | 21.6 µM (inactive) | 32 µM (inactive) | 49.4 µM (inactive) | 19.6 µM (inactive) | 91.4 µM (inactive) | 52.5 µM (inactive) | 85.9 µM (inactive) | 55.2 µM (inactive) | 
13 | CNC(=O)OCC1=C(COC(=O)NC)CN(c2ccccc2)C1 | > 100 µM (inactive) | > 100 µM (inactive) | > 100 µM (inactive) | > 100 µM (inactive) | > 100 µM (inactive) | > 100 µM (inactive) | > 100 µM (inactive) | > 100 µM (inactive) | > 100 µM (inactive) | > 100 µM (inactive) |  | > 100 µM (inactive) | > 100 µM (inactive) | > 100 µM (inactive) | > 100 µM (inactive) | > 100 µM (inactive) | > 100 µM (inactive) | > 100 µM (inactive) | > 100 µM (inactive) | > 100 µM (inactive)
14 | Cc1cccc2c1CC1(Cc3c(C)cccc3C1=O)C2=O | > 100 µM (inactive) | > 100 µM (inactive) | > 100 µM (inactive) | > 100 µM (inactive) |  | > 100 µM (inactive) | > 100 µM (inactive) | > 100 µM (inactive) | > 100 µM (inactive) | > 100 µM (inactive) | > 100 µM (inactive) | > 100 µM (inactive) | > 100 µM (inactive) | > 100 µM (inactive) | > 100 µM (inactive) | > 100 µM (inactive) | > 100 µM (inactive) | > 100 µM (inactive) | > 100 µM (inactive) | 
